Results reported in ChEMBL document CHEMBL1250462, “Affinity of aporphines for the human 5-HT2A receptor: insights from homology modeling and molecular docking studies” (Bioorg Med Chem, 2010).

Each compound was assayed against 5-hydroxytryptamine receptor 2A (Homo sapiens) (UniProt P28223).
Chain of 5-hydroxytryptamine receptor 2A (Homo sapiens) (P28223 whole entry): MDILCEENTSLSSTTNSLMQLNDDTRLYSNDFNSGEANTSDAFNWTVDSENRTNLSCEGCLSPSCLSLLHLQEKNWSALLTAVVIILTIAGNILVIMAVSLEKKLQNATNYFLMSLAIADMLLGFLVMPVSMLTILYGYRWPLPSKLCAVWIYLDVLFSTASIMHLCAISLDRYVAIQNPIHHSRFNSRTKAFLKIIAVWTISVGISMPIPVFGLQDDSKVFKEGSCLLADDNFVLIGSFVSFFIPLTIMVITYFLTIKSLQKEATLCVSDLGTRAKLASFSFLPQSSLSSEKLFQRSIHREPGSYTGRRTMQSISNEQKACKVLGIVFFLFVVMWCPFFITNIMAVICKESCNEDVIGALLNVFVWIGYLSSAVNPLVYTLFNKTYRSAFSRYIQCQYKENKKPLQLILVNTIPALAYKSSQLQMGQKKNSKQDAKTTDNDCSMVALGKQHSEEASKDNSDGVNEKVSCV
Description: Binding affinity to 5HT2A
`COc1cc2c3c(c1OCc1ccccc1)-c1cc4c(cc1CC3N(C)CC2)OCO4` (stereo not drawn) was tested, and the Ke was 4.6 µM.
`COc1cc2c3c(c1OC)-c1cc4c(cc1CC3N(C(C)=O)CC2)OCO4` (stereo not drawn) gave a Ke greater than 10 µM.
With `COc1cc2c3c(c1OC)-c1cc4c(cc1CC3N(S(C)(=O)=O)CC2)OCO4` (stereo not drawn) the Ke was greater than 10 µM.
